US8304406B2, “Compounds for treating pulmonary hypertension” (Bayer Intellectual Property GmbH, priority 2006, dated 2012)

What was measured:
[1] = test system: monocrotaline (MCT) induced pulmonary arterial hypertension in rats; experiment: Pulmonary artery pressure in monocrotaline treated rats; type: in vivo, rat (male Sprague Dawley)
Protocol: Pulmonary Artery Pressure in Monocrotaline Treated Rats
Male Sprague Dawley rats (250-300 g) are treated with monocrotaline 60 mg/kg subcutanously (=day 0). On day 14 after monocrotaline injection treatment the compound/combination to be tested is administered. On day 28 hemodynamic parameters, i.e. right ventricular pressure, systemic blood pressure, heart rate, arterial and venous oxygen saturation are measured and compared with untreated control animals.
The mentioned monocrotaline (MCT) treated rats are randomized to receive example 14 [4-(4-chlorophenylamino)-7-(2-methylaminocarbonyl-4-pyridylmethoxy)furo-[2,3-d]pyridazine] 10 mg/kg or vehicle by gavage once daily after the onset of moderate pulmonary arterial hypertension starting 14 days after the injection of MCT until the final hemodynamic measurement on day 28. In animals with MCT induced pulmonary arterial hypertension treatment with example 14 markedly decreases right ventricular systolic pressure, compared to vehicle treated animals (control: 25±0.56 mmHg; example 14: 42.04±3.21 mmHg vs. placebo: 71.02±5.38 mmHg) (mean±SEM). This effect of example 14 is paralleled by an inhibition of right ventricular hypertrophy (right ventricle/left ventricle+septum ratio control: 0.26±0.01; example 14: 0.32±0.02 vs. placebo: 0.54±0.04).

melting point | Compound | right ventricle/left ventricle+septum ratio (right ventricular hypertrophy) ([1]; 10 mg/kg by gavage once daily from day 14 to day 28, day 28, control 0.26±0.01, placebo 0.54±0.04) | right ventricular systolic pressure ([1]; 10 mg/kg by gavage once daily from day 14 to day 28, measured day 28, mean±SEM, control 25±0.56, placebo 71.02±5.38) [mmHg]
233 °C | NC(=O)c1cc(COc2nnc(Nc3ccc(Cl)cc3)c3ccsc23)ccn1 |  | 
203 to 205 °C (dec.) | Clc1ccc(Nc2nnc(OCc3ccncc3)c3sccc23)cc1 |  | 
 | CNC(=O)c1cc(COc2nnc(Nc3ccc(Cl)cc3)c3ccoc23)ccn1 [Example 14, 4-(4-chlorophenylamino)-7-(2-methylaminocarbonyl-4-pyridylmethoxy)furo-[2,3-d]pyridazine] | 0.32±0.02 | 42.04±3.21
